Values after ≈ are worked out from the molar mass of the structure shown. Like-named read-outs stand apart in the source and are kept apart here.
Tests used:
ICR mice [1] = experiment: 7-day repeated intravenous dose toxicity; format: in vivo; settings: repeated iv 1.5mg/kg
Protocol: (§1) All in vivo mouse toxicity studies were conducted according to Testing Guidelines for Safety Evaluation of Drugs[32] and the Organisation for Economic Co-operation and Development (OECD) Guideline[33]. Male and female ICR mice were used 7 weeks old for the toxicity test. […]

[2] = 7-day repeated intravenous dose toxicity; format: in vivo, mice; settings: both sexes, ICR, mouse, in vivo; mice, 7-day repeated intravenous doses; read-out: MTD, maximal tolerated dose
Protocol: as §1

in vivo [3] = settings: male, SD, rat, plasma, iv, 1 mg/kg
ICR mice [4] = experiment: Single intravenous dose acute toxicity; format: in vivo
Protocol: (§2) All in vivo mouse toxicity studies were conducted according to Testing Guidelines for Safety Evaluation of Drugs[32] and the Organisation for Economic Co-operation and Development (OECD) Guideline[33]. Male and female ICR mice were used 7 weeks old for the toxicity test. […] The single doses were 1, 2.5, and 5 mg per kg body weight.

[5] = Single intravenous dose acute toxicity; format: in vivo, mice; settings: ICR, mouse, in vivo, single intravenous administration
Protocol: as §2

horse blood cells = format: cell-based; settings: 90% hemolysis against horse blood cells; ± percentage standard deviation
Protocol: (§3) For the minimum inhibitory concentration (MIC) assay, strains for testing were grown on YPD agar for 24 hours, and subcultured to YPD broth medium. Whole strains were incubated for 18 hours at 35 °C by shaking incubator. Grown organisms were diluted with fresh RPMI 1640 medium to appropriate concentration, 5 × 10^4 CFU/ml. Cultures were inoculated to 96-well plates containing antifungal medium. All compounds were dissolved using Dimethyl Sulfoxide (DMSO) and diluted broth media. Fungal diluted solution and antifungal medium were mixed at 1:1 ratio so total 200 ul mixed medium was made. Whole experiment plates were incubated for 24 hours at 37 °C. […] The MICs were calculated in duplicate using the Clinical and Laboratory Standards Institute M27-A3 microbroth methodology. Hemolysis experiments and the 3-(4,5-dimethylthiazol-2-yl)-5-(3-carboxymethoxyphenyl)-2-(4-sulfophenyl)-2H-tetrazolium (MTS) cell proliferation colorimetric assay were performed following known procedures[12],[27],[29].

C. albicans SC5314 = experiment: MIC assay (CLSI M27-A3 microbroth); format: cell-based; settings: Candida albicans, SC5314, read-out: Antifungal activity (MIC)
Protocol: as §3

[6] = system: Candida albicans KCTC7965; experiment: MIC assay (CLSI M27-A3 microbroth); format: cell-based; settings: Candida albicans, KCTC7965, read-out: Antifungal activity (MIC)
Protocol: as §3

[7] = system: Saccharomyces cerevisiae ATCC9035; experiment: MIC assay (CLSI M27-A3 microbroth); format: cell-based; settings: Saccharomyces cerevisiae, ATCC9035, read-out: Antifungal activity (MIC)
Protocol: as §3

[8] = system: Cryptococcus humicola ATCC9949; experiment: MIC assay (CLSI M27-A3 microbroth); format: cell-based; settings: Vanrija humicola, ATCC9949, read-out: Antifungal activity (MIC)
Protocol: as §3

C. albicans SL28 = experiment: MIC assay (CLSI M27-A3 microbroth); format: cell-based; settings: Candida albicans, SL28, read-out: Antifungal activity (MIC)
Protocol: as §3

C. albicans SL38 = experiment: MIC assay (CLSI M27-A3 microbroth); format: cell-based; settings: Candida albicans, SL38, read-out: Antifungal activity (MIC)
Protocol: as §3

in vivo [9] = settings: mouse, 0.5 mg/kg
From the text: Supplement 41598_2018_31801_MOESM1_ESM.docx, table 4: Table S4.

SMILES: CC(=O)NC1C(OC2C(C)OC(OC3C=CC=CC=CC=CC=CC=CC=CC(C)C(O)C(C)C(C)OC(=O)CC(O)CC(O)CC(O)CCC(O)C(O)CC4(O)CC(O)C(C(=O)O)C(C3)O4)C(O)C2N)OC(CO)C(O)C1O (centres unmarked) [NPP B1, Nystatin-like Pseudonocardia polyene B1]
- Deaths on day after start of treatment (ICR mice [1]; female, day 0): 0
- Deaths on day after start of treatment (ICR mice [1]; female, day 1): 0
- Deaths on day after start of treatment (ICR mice [1]; female, day 2): 0
- Deaths on day after start of treatment (ICR mice [1]; female, day 3): 0
- Deaths on day after start of treatment (ICR mice [1]; female, day 4): 0
- Deaths on day after start of treatment (ICR mice [1]; female, day 5): 0
- Deaths on day after start of treatment (ICR mice [1]; female, day 6): 0
- Deaths on day after start of treatment (ICR mice [1]; female, day 7): 0
- Deaths on day after start of treatment (ICR mice [1]; male, day 0): 0
- Deaths on day after start of treatment (ICR mice [1]; male, day 1): 0
- Deaths on day after start of treatment (ICR mice [1]; male, day 2): 0
- Deaths on day after start of treatment (ICR mice [1]; male, day 3): 0
- Deaths on day after start of treatment (ICR mice [1]; male, day 4): 0
- Deaths on day after start of treatment (ICR mice [1]; male, day 5): 0
- Deaths on day after start of treatment (ICR mice [1]; male, day 6): 0
- MTD at 7 days [2]: > 1.5 mg/kg
- AUC(0-inf) (in vivo [3]): 13600 ng·h/mL
- AUC(0-t) (in vivo [3]): 10300 ng·h/mL
- MRT inf (in vivo [3]): 15.6 h
- Vd (in vivo [3]): 1.1 L/kg
- clearance (in vivo [3]): 1.67 mL/min/kg
- half-life (in vivo [3]): 14.5 h
- Deaths on day after start of treatment (ICR mice [4]; female, single iv 1mg/kg, day 0): 0
- Deaths on day after start of treatment (ICR mice [4]; female, single iv 1mg/kg, day 1): 0
- Deaths on day after start of treatment (ICR mice [4]; female, single iv 1mg/kg, day 2): 0
- Deaths on day after start of treatment (ICR mice [4]; female, single iv 1mg/kg, day 3): 0
- Deaths on day after start of treatment (ICR mice [4]; female, single iv 1mg/kg, day 4): 0
- Deaths on day after start of treatment (ICR mice [4]; female, single iv 1mg/kg, day 5): 0
- Deaths on day after start of treatment (ICR mice [4]; female, single iv 1mg/kg, day 6): 0
- Deaths on day after start of treatment (ICR mice [4]; female, single iv 1mg/kg, day 7): 0
- Deaths on day after start of treatment (ICR mice [4]; female, single iv 2.5mg/kg, day 0): 1
- Deaths on day after start of treatment (ICR mice [4]; female, single iv 2.5mg/kg, day 1): 0
- Deaths on day after start of treatment (ICR mice [4]; female, single iv 2.5mg/kg, day 2): 1
- Deaths on day after start of treatment (ICR mice [4]; female, single iv 2.5mg/kg, day 3): 0
- Deaths on day after start of treatment (ICR mice [4]; female, single iv 2.5mg/kg, day 4): 0
- Deaths on day after start of treatment (ICR mice [4]; female, single iv 2.5mg/kg, day 5): 0
- Deaths on day after start of treatment (ICR mice [4]; female, single iv 2.5mg/kg, day 6): 0
- Deaths on day after start of treatment (ICR mice [4]; female, single iv 2.5mg/kg, day 7): 0
- Deaths on day after start of treatment (ICR mice [4]; female, single iv 5mg/kg, day 0): 3
- Deaths on day after start of treatment (ICR mice [4]; female, single iv 5mg/kg, day 1): 2
- Deaths on day after start of treatment (ICR mice [4]; female, single iv 5mg/kg, day 2): 0
- Deaths on day after start of treatment (ICR mice [4]; female, single iv 5mg/kg, day 3): 0
- Deaths on day after start of treatment (ICR mice [4]; female, single iv 5mg/kg, day 4): 0
- Deaths on day after start of treatment (ICR mice [4]; female, single iv 5mg/kg, day 5): 0
- Deaths on day after start of treatment (ICR mice [4]; female, single iv 5mg/kg, day 6): 0
- Deaths on day after start of treatment (ICR mice [4]; female, single iv 5mg/kg, day 7): 0
- Deaths on day after start of treatment (ICR mice [4]; male, single iv 1mg/kg, day 0): 0
- Deaths on day after start of treatment (ICR mice [4]; male, single iv 1mg/kg, day 1): 0
- Deaths on day after start of treatment (ICR mice [4]; male, single iv 1mg/kg, day 2): 0
- Deaths on day after start of treatment (ICR mice [4]; male, single iv 1mg/kg, day 3): 0
- Deaths on day after start of treatment (ICR mice [4]; male, single iv 1mg/kg, day 4): 0
- Deaths on day after start of treatment (ICR mice [4]; male, single iv 1mg/kg, day 5): 0
- Deaths on day after start of treatment (ICR mice [4]; male, single iv 1mg/kg, day 6): 0
- Deaths on day after start of treatment (ICR mice [4]; male, single iv 1mg/kg, day 7): 0
- Deaths on day after start of treatment (ICR mice [4]; male, single iv 2.5mg/kg, day 0): 1
- Deaths on day after start of treatment (ICR mice [4]; male, single iv 2.5mg/kg, day 1): 0
- Deaths on day after start of treatment (ICR mice [4]; male, single iv 2.5mg/kg, day 2): 1
- Deaths on day after start of treatment (ICR mice [4]; male, single iv 2.5mg/kg, day 3): 0
- Deaths on day after start of treatment (ICR mice [4]; male, single iv 2.5mg/kg, day 4): 0
- Deaths on day after start of treatment (ICR mice [4]; male, single iv 2.5mg/kg, day 5): 0
- Deaths on day after start of treatment (ICR mice [4]; male, single iv 2.5mg/kg, day 6): 0
- Deaths on day after start of treatment (ICR mice [4]; male, single iv 2.5mg/kg, day 7): 0
- Deaths on day after start of treatment (ICR mice [4]; male, single iv 5mg/kg, day 0): 4
- Deaths on day after start of treatment (ICR mice [4]; male, single iv 5mg/kg, day 1): 0
- Deaths on day after start of treatment (ICR mice [4]; male, single iv 5mg/kg, day 2): 1
- Deaths on day after start of treatment (ICR mice [4]; male, single iv 5mg/kg, day 3): 0
- Deaths on day after start of treatment (ICR mice [4]; male, single iv 5mg/kg, day 4): 0
- Deaths on day after start of treatment (ICR mice [4]; male, single iv 5mg/kg, day 5): 0
- Deaths on day after start of treatment (ICR mice [4]; male, single iv 5mg/kg, day 6): 0
- Deaths on day after start of treatment (ICR mice [4]; male, single iv 5mg/kg, day 7): 0
- LD50 at 7 days ([5]; female mice, read-out: median lethal dose (LD50)): 2.95 mg/kg
- LD50 at 7 days ([5]; male mice, read-out: median lethal dose (LD50)): 2.95 mg/kg
- LD50 at 7 days ([5]; both sexes, mice, read-out: LD50, median lethal dose (dose causing 50% mortality)): 2.95 mg/kg
- Hemolytic activity (MHC, minimum hemolytic concentration) (horse blood cells): 13.60 ± 0.19 µg/mL
- MIC (C. albicans SC5314): 4 µg/mL (≈ 3.55 µM)
- MIC [6]: 2 µg/mL (≈ 1.77 µM)
- MIC [7]: 2 µg/mL (≈ 1.77 µM)
- MIC [8]: 1 µg/mL (≈ 0.887 µM)
- MIC (C. albicans SL28): 4 µg/mL (≈ 3.55 µM)
- MIC (C. albicans SL38): 2 µg/mL (≈ 1.77 µM)
- AUC(0-inf) (in vivo [9]; read-out: AUC0-inf): 15100 ng·h/mL
- AUC(0-t) (in vivo [9]; read-out: AUC0-t): 5890 ng·h/mL
- clearance (in vivo [9]; read-out: CL (converted)): 0.5 mL/min/kg
- MRT inf (in vivo [9]; read-out: MRTinf): 17 h
- Vd (in vivo [9]; read-out: Vss): 0.6 L/kg
- half-life (in vivo [9]; read-out: t1/2 (converted)): 12.3 h

— publication PMC6134108, “Nystatin-like Pseudonocardia polyene B1, a novel disaccharide-containing antifungal heptaene antibiotic” (Scientific Reports, 2018)
